Data published in ChEMBL document CHEMBL2439983, “The discovery and optimization of novel dual inhibitors of topoisomerase II and histone deacetylase” (Bioorg Med Chem, 2013).
The source made the active and inactive calls. The rule behind the calls is not given here.

Legend:
[1] = biological target: T1, Protein deacetylase HDAC6 (Homo sapiens, UniProt Q9UBN7); experiment: Inhibition of human recombinant HDAC6 expressed in baculovirus infected insect high5 cells using Boc-Lys (epsilon-acetyl)-AM) as substrate after 3 to 24 hrs by fluorescence assay
T1 sequence (Q9UBN7 whole entry): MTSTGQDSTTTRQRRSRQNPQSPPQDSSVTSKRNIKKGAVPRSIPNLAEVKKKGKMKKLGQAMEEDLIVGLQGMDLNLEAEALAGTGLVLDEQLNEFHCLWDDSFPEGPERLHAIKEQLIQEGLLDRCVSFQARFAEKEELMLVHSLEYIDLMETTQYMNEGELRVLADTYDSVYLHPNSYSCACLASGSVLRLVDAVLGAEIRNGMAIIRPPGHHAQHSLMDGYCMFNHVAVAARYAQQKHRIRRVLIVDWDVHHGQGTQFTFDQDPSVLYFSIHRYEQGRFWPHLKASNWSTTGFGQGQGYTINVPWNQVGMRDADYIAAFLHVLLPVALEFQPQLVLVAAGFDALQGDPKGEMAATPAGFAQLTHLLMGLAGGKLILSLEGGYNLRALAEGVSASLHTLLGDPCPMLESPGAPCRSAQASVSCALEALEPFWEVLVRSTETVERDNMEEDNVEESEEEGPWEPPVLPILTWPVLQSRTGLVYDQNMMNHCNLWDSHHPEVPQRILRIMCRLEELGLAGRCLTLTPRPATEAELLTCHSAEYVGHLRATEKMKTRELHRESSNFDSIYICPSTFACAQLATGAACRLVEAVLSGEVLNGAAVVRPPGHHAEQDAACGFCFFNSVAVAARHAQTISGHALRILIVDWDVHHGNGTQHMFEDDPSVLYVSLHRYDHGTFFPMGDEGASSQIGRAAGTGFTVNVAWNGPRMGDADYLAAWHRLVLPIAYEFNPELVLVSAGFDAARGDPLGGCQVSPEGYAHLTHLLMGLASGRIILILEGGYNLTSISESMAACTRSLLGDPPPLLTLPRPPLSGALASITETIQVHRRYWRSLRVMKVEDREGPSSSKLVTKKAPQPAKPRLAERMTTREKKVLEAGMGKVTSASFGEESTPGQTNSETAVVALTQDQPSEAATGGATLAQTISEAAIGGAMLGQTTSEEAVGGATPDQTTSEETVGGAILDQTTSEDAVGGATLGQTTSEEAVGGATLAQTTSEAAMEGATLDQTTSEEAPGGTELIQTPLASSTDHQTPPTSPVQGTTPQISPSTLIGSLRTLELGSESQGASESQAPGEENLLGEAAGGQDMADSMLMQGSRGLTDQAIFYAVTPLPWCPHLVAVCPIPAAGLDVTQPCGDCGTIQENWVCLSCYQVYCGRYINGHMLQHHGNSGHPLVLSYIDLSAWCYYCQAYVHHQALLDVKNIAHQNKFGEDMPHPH

[2] = biological target: Histone deacetylase 3 (Homo sapiens, UniProt O15379); experiment: Inhibition of human recombinant HDAC3 expressed in baculovirus infected insect high5 cells using Ac-Lys-Tyr-Lys (epsilon-acetyl)-AMC as substrate after 3 to 24 hrs by fluorescence assay
[3] = biological target: Histone deacetylase 1 (Homo sapiens, UniProt Q13547); experiment: Inhibition of human recombinant HDAC1 expressed in baculovirus infected insect high5 cells using Ac-Lys-Tyr-Lys (epsilon-acetyl)-AMC as substrate after 3 to 24 hrs by fluorescence assay
[4] = tested on: HCT-116; experiment: cells; conditions: Homo sapiens, HCT-116, 72 h
Description: Antiproliferative activity against human HCT116 cells assessed as cell viability after 72 hrs by MTT assay

[5] = biological target: DNA topoisomerase 2-alpha (Homo sapiens) (UniProt P11388); experiment: Inhibition of Topoisomerase 2 (unknown origin) assessed as impairment of pBR322 DNA decatenation at 100 uM after 30 mins by agarose gel electrophoresis
[6] = biological target: Histone deacetylase 2 (Homo sapiens, UniProt Q92769); experiment: Inhibition of HDAC2 (unknown origin)
[7] = tested on: A549; experiment: Antiproliferative activity against human A549 cells assessed as cell viability after 72 hrs by MTT assay; format: functional, cell-based; conditions: A549, 72 h

Histone deacetylase 1, sequence (Q13547 whole entry): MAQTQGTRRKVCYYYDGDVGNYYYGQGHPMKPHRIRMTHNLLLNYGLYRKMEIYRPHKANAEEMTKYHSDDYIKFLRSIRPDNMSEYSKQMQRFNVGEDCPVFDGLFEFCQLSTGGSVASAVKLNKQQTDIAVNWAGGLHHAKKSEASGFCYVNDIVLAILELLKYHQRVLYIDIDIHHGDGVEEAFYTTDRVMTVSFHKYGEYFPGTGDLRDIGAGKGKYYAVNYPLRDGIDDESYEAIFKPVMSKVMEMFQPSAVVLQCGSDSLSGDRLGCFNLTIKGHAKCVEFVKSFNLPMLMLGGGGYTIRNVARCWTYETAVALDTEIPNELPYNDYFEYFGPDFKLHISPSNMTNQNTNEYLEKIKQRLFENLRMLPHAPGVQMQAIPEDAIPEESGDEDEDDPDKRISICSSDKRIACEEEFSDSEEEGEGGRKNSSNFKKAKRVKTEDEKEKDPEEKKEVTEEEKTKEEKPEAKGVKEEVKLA
Histone deacetylase 2, sequence (Q92769 whole entry): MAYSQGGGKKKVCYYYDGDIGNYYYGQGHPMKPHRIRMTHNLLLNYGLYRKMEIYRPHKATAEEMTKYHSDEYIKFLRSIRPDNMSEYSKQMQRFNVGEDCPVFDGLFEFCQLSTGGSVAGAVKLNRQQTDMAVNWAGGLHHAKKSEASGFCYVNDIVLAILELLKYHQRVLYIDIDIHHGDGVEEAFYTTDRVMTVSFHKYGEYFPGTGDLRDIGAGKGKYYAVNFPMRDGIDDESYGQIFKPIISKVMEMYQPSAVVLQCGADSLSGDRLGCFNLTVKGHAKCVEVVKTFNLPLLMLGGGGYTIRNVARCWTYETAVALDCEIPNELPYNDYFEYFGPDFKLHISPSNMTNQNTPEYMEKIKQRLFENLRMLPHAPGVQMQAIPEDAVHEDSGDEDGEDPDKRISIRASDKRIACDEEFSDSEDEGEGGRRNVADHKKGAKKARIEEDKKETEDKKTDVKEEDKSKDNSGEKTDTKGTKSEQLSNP
DNA topoisomerase 2-alpha (Homo sapiens), sequence (P11388 whole entry): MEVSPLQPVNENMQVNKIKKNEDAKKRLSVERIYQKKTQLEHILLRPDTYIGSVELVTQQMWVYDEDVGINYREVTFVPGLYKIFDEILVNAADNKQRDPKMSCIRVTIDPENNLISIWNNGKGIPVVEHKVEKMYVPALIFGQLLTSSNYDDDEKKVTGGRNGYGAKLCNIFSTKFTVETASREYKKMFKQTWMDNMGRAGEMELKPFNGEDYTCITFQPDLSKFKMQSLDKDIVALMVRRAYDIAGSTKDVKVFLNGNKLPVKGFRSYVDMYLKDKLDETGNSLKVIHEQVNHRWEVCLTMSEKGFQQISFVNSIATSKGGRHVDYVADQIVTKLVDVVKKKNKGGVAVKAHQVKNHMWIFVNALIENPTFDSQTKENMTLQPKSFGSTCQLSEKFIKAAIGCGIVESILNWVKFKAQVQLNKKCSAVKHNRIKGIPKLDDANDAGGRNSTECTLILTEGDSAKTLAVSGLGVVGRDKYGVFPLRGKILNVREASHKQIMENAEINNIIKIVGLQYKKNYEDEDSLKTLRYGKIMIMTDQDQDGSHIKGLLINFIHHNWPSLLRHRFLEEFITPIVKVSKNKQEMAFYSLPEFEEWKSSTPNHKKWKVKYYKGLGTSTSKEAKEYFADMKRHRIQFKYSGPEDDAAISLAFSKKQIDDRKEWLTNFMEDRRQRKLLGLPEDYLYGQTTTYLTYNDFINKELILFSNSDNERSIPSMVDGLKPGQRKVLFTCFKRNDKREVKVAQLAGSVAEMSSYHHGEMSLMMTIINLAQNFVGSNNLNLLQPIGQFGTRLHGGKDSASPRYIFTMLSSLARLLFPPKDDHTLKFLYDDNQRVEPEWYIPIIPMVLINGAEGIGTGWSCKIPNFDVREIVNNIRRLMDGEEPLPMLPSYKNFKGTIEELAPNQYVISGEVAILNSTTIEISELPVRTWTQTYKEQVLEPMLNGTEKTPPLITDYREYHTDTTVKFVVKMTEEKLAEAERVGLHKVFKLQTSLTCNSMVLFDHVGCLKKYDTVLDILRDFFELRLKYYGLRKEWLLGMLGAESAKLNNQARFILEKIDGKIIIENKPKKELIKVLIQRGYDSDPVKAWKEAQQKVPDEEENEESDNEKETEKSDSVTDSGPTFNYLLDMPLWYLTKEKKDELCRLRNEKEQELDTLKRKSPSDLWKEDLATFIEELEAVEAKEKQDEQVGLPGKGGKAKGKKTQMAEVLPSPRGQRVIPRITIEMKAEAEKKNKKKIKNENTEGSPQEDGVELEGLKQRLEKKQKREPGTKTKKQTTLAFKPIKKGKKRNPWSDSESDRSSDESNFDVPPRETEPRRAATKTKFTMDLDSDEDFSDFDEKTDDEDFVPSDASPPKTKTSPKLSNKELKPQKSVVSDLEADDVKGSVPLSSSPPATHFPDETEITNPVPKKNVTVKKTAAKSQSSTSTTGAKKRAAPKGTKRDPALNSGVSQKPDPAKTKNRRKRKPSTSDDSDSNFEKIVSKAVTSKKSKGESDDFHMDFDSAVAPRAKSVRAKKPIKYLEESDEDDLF
Histone deacetylase 3, sequence (O15379 whole entry): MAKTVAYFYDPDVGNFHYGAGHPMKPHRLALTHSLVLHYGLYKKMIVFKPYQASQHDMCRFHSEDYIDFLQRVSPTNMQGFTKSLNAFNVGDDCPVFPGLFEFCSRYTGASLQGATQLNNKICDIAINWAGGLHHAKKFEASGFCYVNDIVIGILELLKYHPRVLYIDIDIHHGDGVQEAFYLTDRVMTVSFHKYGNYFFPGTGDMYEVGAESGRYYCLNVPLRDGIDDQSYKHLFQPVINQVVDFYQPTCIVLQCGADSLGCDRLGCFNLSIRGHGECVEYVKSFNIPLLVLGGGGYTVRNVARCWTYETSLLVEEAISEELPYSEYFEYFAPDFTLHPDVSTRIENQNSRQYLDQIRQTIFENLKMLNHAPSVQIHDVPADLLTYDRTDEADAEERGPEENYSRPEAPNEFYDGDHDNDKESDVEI

| SMILES | IC50 [1] | IC50 [2] | IC50 [3] | IC50 [4] | inhibition [5] | IC50 [6] | IC50 [7] |
| --- | --- | --- | --- | --- | --- | --- | --- |
| COc1cc([C@@H]2c3cc4c(cc3[C@@H](Nc3ccccc3OCCCC(=O)NO)[C@H]3COC(=O)[C@H]23)OCO4)cc(OC)c1O | 357 nM | 1440 nM | 578 nM | 28900 nM |  |  |  |
| COc1cc([C@@H]2c3cc4c(cc3[C@@H](Nc3cccc(OCCCCCC(=O)NO)c3)[C@H]3COC(=O)[C@H]23)OCO4)cc(OC)c1O | 15 nM | 81 nM | 45 nM | 5720 nM |  |  |  |
| COc1cc([C@@H]2c3cc4c(cc3[C@@H](Nc3ccc(OCCCCC(=O)NO)cc3)[C@H]3COC(=O)[C@H]23)OCO4)cc(OC)c1O | 88 nM | 242 nM | 125 nM | 5260 nM |  |  |  |
| COc1cc([C@@H]2c3cc4c(cc3[C@@H](Nc3cccc(NC(=O)CCCCCCC(=O)NO)c3)[C@H]3COC(=O)[C@H]23)OCO4)cc(OC)c1O | 40 nM | 130 nM | 100 nM | 8570 nM | Active |  |  |
| COc1cc([C@@H]2c3cc4c(cc3[C@@H](Nc3ccc(OCCCC(=O)NO)cc3)[C@H]3COC(=O)[C@H]23)OCO4)cc(OC)c1O | 214 nM | 193 nM | 243 nM | 5370 nM |  |  |  |
| COc1cc([C@@H]2c3cc4c(cc3[C@@H](Nc3ccccc3OCCCCCCCC(=O)NO)[C@H]3COC(=O)[C@H]23)OCO4)cc(OC)c1O | 217 nM | 217 nM | 175 nM | 11400 nM |  |  |  |
| COc1cc([C@@H]2c3cc4c(cc3[C@@H](Nc3ccccc3OCCCCCCC(=O)NO)[C@H]3COC(=O)[C@H]23)OCO4)cc(OC)c1O | 27 nM | 155 nM | 72 nM | 11300 nM | Active |  |  |
| O=C(CCCCCCC(=O)Nc1ccccc1)NO |  |  |  |  | inactive |  |  |
| COc1cc([C@@H]2c3cc4c(cc3[C@@H](Nc3ccccc3OCCCCC(=O)NO)[C@H]3COC(=O)[C@H]23)OCO4)cc(OC)c1O | 84 nM | 899 nM | 369 nM | 16500 nM |  |  |  |
| COc1cc([C@@H]2c3cc4c(cc3[C@@H](Nc3cccc(NC(=O)CCCCC(=O)NO)c3)[C@H]3COC(=O)[C@H]23)OCO4)cc(OC)c1O | 520 nM | 2110 nM | 1430 nM | 14100 nM |  |  |  |
| COc1cc([C@@H]2c3cc4c(cc3[C@@H](Nc3cccc(OCCCCC(=O)NO)c3)[C@H]3COC(=O)[C@H]23)OCO4)cc(OC)c1O | 42 nM | 111 nM | 93 nM | 6290 nM |  |  |  |
| COc1cc([C@@H]2c3cc4c(cc3[C@@H](Nc3ccccc3OCCCCCC(=O)NO)[C@H]3COC(=O)[C@H]23)OCO4)cc(OC)c1O | 20 nM | 188 nM | 145 nM | 8100 nM |  |  |  |
| COc1cc([C@@H]2c3cc4c(cc3[C@@H](Nc3cccc(NC(=O)CCCCCC(=O)NO)c3)[C@H]3COC(=O)[C@H]23)OCO4)cc(OC)c1O | 160 nM | 590 nM | 380 nM | 19600 nM |  |  |  |
| COc1cc([C@@H]2c3cc4c(cc3[C@@H](Nc3cccc(OCCCC(=O)NO)c3)[C@H]3COC(=O)[C@H]23)OCO4)cc(OC)c1O | 405 nM | 767 nM | 385 nM | 29400 nM |  |  |  |

More lines, in order of falling IC50 [4], values ahead:

| IC50 [1] | IC50 [2] | IC50 [3] | IC50 [4] | inhibition [5] | IC50 [6] | IC50 [7] | SMILES |
| --- | --- | --- | --- | --- | --- | --- | --- |
| 69 nM | 69 nM | 39 nM | 5190 nM |  |  |  | COc1cc([C@@H]2c3cc4c(cc3[C@@H](Nc3cccc(OCCCCCCCC(=O)NO)c3)[C@H]3COC(=O)[C@H]23)OCO4)cc(OC)c1O |
| 16 nM | 49 nM | 29 nM | 5030 nM | Active |  |  | COc1cc([C@@H]2c3cc4c(cc3[C@@H](Nc3ccc(OCCCCCCC(=O)NO)cc3)[C@H]3COC(=O)[C@H]23)OCO4)cc(OC)c1O |
| 26 nM | 69 nM | 207 nM | 4920 nM |  |  |  | COc1cc([C@@H]2c3cc4c(cc3[C@@H](Nc3ccc(OCCCCCC(=O)NO)cc3)[C@H]3COC(=O)[C@H]23)OCO4)cc(OC)c1O |
| 1060 nM | 1690 nM | 2830 nM | 3760 nM |  |  |  | COc1cc([C@@H]2c3cc4c(cc3[C@@H](Nc3ccc(NC(=O)CCCCC(=O)NO)cc3)[C@H]3COC(=O)[C@H]23)OCO4)cc(OC)c1O |
| 53 nM | 53 nM | 87 nM | 3720 nM |  |  |  | COc1cc([C@@H]2c3cc4c(cc3[C@@H](Nc3ccc(OCCCCCCCC(=O)NO)cc3)[C@H]3COC(=O)[C@H]23)OCO4)cc(OC)c1O |
| 5.6 nM | 9.6 nM | 11 nM | 3330 nM | Active |  |  | COc1cc([C@@H]2c3cc4c(cc3[C@@H](Nc3cccc(OCCCCCCC(=O)NO)c3)[C@H]3COC(=O)[C@H]23)OCO4)cc(OC)c1O |
| 130 nM | 520 nM | 590 nM | 2940 nM |  |  |  | COc1cc([C@@H]2c3cc4c(cc3[C@@H](Nc3ccc(NC(=O)CCCCCC(=O)NO)cc3)[C@H]3COC(=O)[C@H]23)OCO4)cc(OC)c1O |
|  |  |  | 1570 nM | inactive |  |  | Nc1ccccc1NC(=O)c1ccc(CNc2nccc(-c3cccnc3)n2)cc1 [MOCETINOSTAT] |
| 90 nM | 230 nM | 210 nM | 1270 nM | Active | 140 nM | 18600 nM | COc1cc([C@@H]2c3cc4c(cc3[C@@H](Nc3ccc(NC(=O)CCCCCCC(=O)NO)cc3)[C@H]3COC(=O)[C@H]23)OCO4)cc(OC)c1O |
|  |  |  | 920 nM |  | 53500 nM | 1110 nM | COc1cc([C@@H]2c3cc4c(cc3[C@@H](Nc3cccc(OCCCCCCC(=O)Nc5ccccc5N)c3)[C@H]3COC(=O)[C@H]23)OCO4)cc(OC)c1O |
|  |  | > 34000 nM | 870 nM | Active |  |  | COc1cc([C@@H]2c3cc4c(cc3[C@@H](O[C@@H]3O[C@@H]5CO[C@@H](C)O[C@H]5[C@H](O)[C@H]3O)[C@H]3COC(=O)[C@H]23)OCO4)cc(OC)c1O [ETOPOSIDE] |
|  | 11600 nM | 14100 nM | 520 nM | Active | 10400 nM | 1160 nM | COc1cc([C@@H]2c3cc4c(cc3[C@@H](Nc3ccc(OCCCCCCC(=O)Nc5ccccc5N)cc3)[C@H]3COC(=O)[C@H]23)OCO4)cc(OC)c1O |
